Key:
Type in all cases: physicochemical
[1] = Maximum carbon dioxide (CO2) release temperature of amine compound (DSC after CO2 absorption from air); conditions: amine compound stood 24 hours in air at 23° C., 50% RH; DSC 23 to 250° C., 10° C./minute, nitrogen
Procedure: A carbon dioxide concentration meter and a petri dish were placed inside an openable desiccator (Internal Dimension: 370 mm×260 mm×272 mm). […] An initial concentration of carbon dioxide was adjusted to about 400 ppm. Then, the amine compound was removed from the desiccator to obtain the amine compound with carbon dioxide absorbed. The DSC measurement was performed on the amine compound with carbon dioxide absorbed as follows, to measure the maximum carbon dioxide release temperature of the amine compound. First, the differential scanning calorimetry was performed on the amine compound using the differential thermogravimetric analyzer (Product Name: DTG-60 produced by Shimadzu Corporation) under the conditions of 23 to 250° C. of a measurement temperature range, 10° C./minute of the heating rate, and the nitrogen atmosphere. From the DSC curve obtained thereby, the temperature at which the endothermic amount associated with the desorption of carbon dioxide reached the maximum was calculated, and the temperature thereof was used as the maximum carbon dioxide release temperature of the amine compound.

[2] = Maximum endothermic temperature of amine compound (DSC); conditions: DSC 23 to 350° C., 10° C./minute, nitrogen; volatilization of the amine compound
Procedure: DSC measurements were performed on the amine compounds to measure the maximum endothermic temperature of the amine compounds as follows. First, a differential scanning calorimetry was performed on the amine compounds using a differential thermogravimetric analyzer (Product Name: DTG-60 produced by Shimadzu Corporation) under conditions of 23 to 350° C. of a measurement temperature range, 10° C./minute of a heating rate, and a nitrogen atmosphere. From the DSC curve obtained thereby, the temperature at which the endothermic amount associated with the volatilization of the amine compound reached the maximum was calculated, and the temperature thereof was used as the maximum endothermic temperature of the amine compound.

[3] = Amine value of amine compound (JIS K7237-1995 titration); conditions: 0.1 N perchloric acid-acetic acid titration
Procedure: The amine value was measured by the following measurement method in accordance with JIS K7237-1995. • (1) Dissolving 0.1 g of the amine compound in 20 mL of the acetic acid. • (2) Calculating the amine value by titrating the solution obtained in the above (1) with the 0.1 N perchloric acid-acetic acid solution using the automatic potentiometric titrator (AT-610 produced by Kyoto Electronics Manufacturing Co., Ltd.).

[4] = Acid dissociation constant (pKa) of amine compound (acid-base titration); conditions: 25±2° C., in purified water
Procedure: The acid dissociation constant of the amine compound was determined by the following method. • (1) Dissolving 0.2 g of the amine compound in 30 mL of the purified water. • (2) Calculating the acid dissociation constant (pKa) by titrating the solution obtained in the above (1) with the 0.1 N perchloric acid-acetic acid solution using the automatic potentiometric titrator (AT-610 produced by Kyoto Electronics Manufacturing Co., Ltd.).
Still, let the temperature at the time of measurement be 25±2° C.

NCCN1CCNCC1 [AEP, 2-aminoethylpiperazine]
Maximum CO2 Release Temperature [1]: 81.9 °C
Maximum Endothermic Temperature [2]: 118.4 °C
Amine Value [3]: 1154 mgKOH/g
pKa [4]: 10.1

NCCNCCNCCN [TETA, triethylenetetramine]
pKa [4]: 10.3

NCCCN(CCCN)CC1CCCC(CN(CCCN)CCCN)C1 (stereo not shown) [1,3-BAC-tetraAP]
Maximum CO2 Release Temperature [1]: 102.3 °C
Maximum Endothermic Temperature [2]: 298.2 °C
Amine Value [3]: 890 mgKOH/g
pKa [4]: 9.8

NCCCNCC1CCCC(CNCCCN)C1 (stereo not shown) [1,3-BAC-BisAP]
pKa [4]: 9.5

Source: patent publication US20240367098A1, “CARBON DIOXIDE ABSORBENT, METHOD FOR RECOVERING CARBON DIOXIDE, AND APPARATUS FOR SEPARATING AND RECOVERING CARBON DIOXIDE” (MITSUBISHI GAS CHEMICAL COMPANY, INC., priority 2021, published 2024)
